Source: patent US20120015396A1, “COMPOSITIONS AND METHODS FOR MODULATING THE ACID-SENSING ION CHANNEL (ASIC)” (Department of Veteran's Affair, United States Technology …, priority 2002, published 2012)

Key:
[1] = system: Schaffer collateral-CA1 synapses in hippocampal slices; assay: LTP induced by HFS in hippocampal slices; assay type: cell-based, mice; conditions: 10 μM PMA
Experimental: (§1) Transverse hippocampal slices (350-400 μm) were prepared from wild type (+/+) and ASIC knock out (−/−) littermates at 2-4 months of age. For the LTP studies, the applicant was blinded to genotype. The slices were sectioned in ice-cold artificial cerebrospinal fluid (ACSF) containing (in mM) 119 NaCl, 2.5 KCl, 2.5 CaCl2, 1.0 NaH2PO4, 1.3 MgSO4, 26.2 NaHCO3, 11 glucose, pH 7.4, bubbled with 95% O2/5% CO2, and then were incubated in identical solution at 31° C. for 2-5 hours before recording.
Standard extracellular field potential recording techniques were used. Experiments were performed in a submerged chamber, heated to 31±0.5° C. Field postsynaptic excitatory potentials (EPSPs) were evoked in CA1 stratum radiatum by stimulation of Schaffer collaterals with a bipolar stainless steel electrode that was put at the border of CA3-CA1 subfields and recorded with 3M NaCl-filled glass pipettes (<5 MSΩ) using a biological amplifier (WPI, Iso-DAME, FL., USA). A 100 μs test stimulation was delivered every 30 s by a stimulus isolation unit (Grass, SD9, Mass., USA). Input-output curves were obtained by plotting the stimulus voltage against the amplitude of EPSPs. […] Stimulus intensity was adjusted to evoke half-maximal responses. LTP was induced by a high-frequency stimulation (HFS, 100 Hz, 1 s, at test intensity). Paired-pulse facilitation (PPF) was observed by applying paired pulses with different intervals (20, 50 ms). LTP was measured by normalizing the EPSP slopes after HFS to the mean slope of the baseline EPSP before HFS. Data were digitized (10 kHz), filtered at 1 kHz (eight-pole Bessel Filter), monitored on-line, and stored on hard disk using PULSE 8.41 (HEKA, Lambrecht, Germany). Off-line analysis was performed by PATCHMACHINE 1.0 (Hoshi Laboratory, Philadelphia, Pa., USA) and IGORPRO 4.0 (WaveMetrics, Lake Oswego, Oreg., USA). Unless otherwise noted, two-sample t-test was used to calculate statistical

cortical neurons = conditions: primary cultures of cortical neurons; cited from earlier work
[2] = system: Schaffer collateral-CA1 synapses in hippocampal slices; assay: Baseline field EPSP recording in hippocampal slices; assay type: cell-based; conditions: KA 5 mM; slices from +/+ and −/− mice
Experimental: as §1
Standard extracellular field potential recording techniques were used. Experiments were performed in a submerged chamber, heated to 31±0.5° C. Field postsynaptic excitatory potentials (EPSPs) were evoked in CA1 stratum radiatum by stimulation of Schaffer collaterals with a bipolar stainless steel electrode that was put at the border of CA3-CA1 subfields and recorded with 3M NaCl-filled glass pipettes (<5 MSΩ) using a biological amplifier (WPI, Iso-DAME, FL., USA). A 100 μs test stimulation was delivered every 30 s by a stimulus isolation unit (Grass, SD9, Mass., USA). […] LTP was measured by normalizing the EPSP slopes after HFS to the mean slope of the baseline EPSP before HFS. Data were digitized (10 kHz), filtered at 1 kHz (eight-pole Bessel Filter), monitored on-line, and stored on hard disk using PULSE 8.41 (HEKA, Lambrecht, Germany). […]

ASIC channels = molecular target: T1, ASIC channels (Homo sapiens, UniProt P78348); conditions: cited from earlier work
T1 sequence (P78348 1-528): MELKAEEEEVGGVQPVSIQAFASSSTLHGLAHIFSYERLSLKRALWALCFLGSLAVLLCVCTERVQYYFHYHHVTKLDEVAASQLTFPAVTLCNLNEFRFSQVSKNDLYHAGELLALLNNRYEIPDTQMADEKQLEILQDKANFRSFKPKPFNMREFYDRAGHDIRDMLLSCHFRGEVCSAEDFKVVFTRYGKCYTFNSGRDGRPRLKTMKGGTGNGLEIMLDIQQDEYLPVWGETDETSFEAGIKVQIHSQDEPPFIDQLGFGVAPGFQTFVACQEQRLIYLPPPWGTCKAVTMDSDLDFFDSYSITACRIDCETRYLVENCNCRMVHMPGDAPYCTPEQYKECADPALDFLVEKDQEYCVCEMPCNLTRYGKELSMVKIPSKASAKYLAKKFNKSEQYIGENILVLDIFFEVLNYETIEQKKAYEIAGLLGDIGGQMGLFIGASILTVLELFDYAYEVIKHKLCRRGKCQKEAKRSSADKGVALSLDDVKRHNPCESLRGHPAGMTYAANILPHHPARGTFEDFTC

CCCCCCCCCCCCCC(=O)O[C@@H]1[C@@H](C)[C@@]2(O)[C@@H](C=C(CO)C[C@]3(O)C(=O)C(C)=C[C@@H]23)[C@@H]2C(C)(C)[C@]12OC(C)=O [PMA, phorbol 12-myristate 13-acetate]
Mean EPSP amplitude at 40 min. following HFS ([1]; +/+ slices): 167±15% | Mean EPSP amplitude at 40 min. following HFS ([1]; −/− slices): 158±11% | effect on LTP ([1]; −/− slices): restores LTP

N=C(N)NC(=O)c1nc(Cl)c(N)nc1N [amiloride]
effect on H+-evoked currents (cortical neurons): inhibition

O=C(O)c1cc(=O)c2ccccc2[nH]1 [KA, kynurenic acid]
effect on baseline EPSPs [2]: abolished EPSPs

neuropeptide FF
modulation of the response of ASIC channels to acid (ASIC channels): generating a sustained component of current

Phe-Met-Arg-Phe-NH2 [FMRFamide]
modulation of the response of ASIC channels to acid (ASIC channels): generating a sustained component of current
